Results on 11 compounds are retold here after ChEMBL document CHEMBL1201862, “PubChem BioAssay data set” (2004).

Some test systems named below: SN12C; DU-145; SK-MEL-2; CAKI-1; 786-0; NCI-H226; NCI/ADR-RES; M14; MDA-N; UACC-62; SK-OV-3; MDA-MB-435; OVCAR-8; SF-295; NCI-H460; EKVX; U-251; SW-620; RPMI-8226; HOP-92.
Common to all, as to experiment: NCI tumour cell line growth inhibition, 48 h

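Tested at 5 concentrations; 48 h exposure; 96-well plates; endpoints linearly interpolated, else capped at highest concentration. Abbreviation: GI50, concentration required for 50% inhibition of growth.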 Active and inactive are the calls of the source. No stated cut-off is given here; in the data, active = GI50 up to about 1.1 µM and inactive = higher. A value given as a limit tells only on which side of the number the result lay.

As to `O=C(O)c1cccc(S(=O)(=O)NN2C(=O)CSC2c2c(O)ccc3ccccc23)c1` (configuration not stated), the GI50 is 36.9 µM (inactive) in the assay with SN12C; 44.7 µM (inactive) in the assay with DU-145; 33.5 µM (inactive) in the assay on SK-MEL-2; 25.5 µM (inactive) in the assay on CAKI-1; 39.4 µM (inactive) in the assay with 786-0; 34.8 µM (inactive) with NCI-H226. The GI50 is 22.1 µM (inactive) in the assay on NCI/ADR-RES; 42.2 µM (inactive) in the assay on M14; 37.8 µM (inactive) in the assay with MDA-N; 27 µM (inactive) with UACC-62; 37.7 µM (inactive) in the assay on SK-OV-3; 37.6 µM (inactive) in the assay with MDA-MB-435. The GI50 is < 0.01 µM (active) in the assay with OVCAR-8; 29.3 µM (inactive) with SF-295; 34.7 µM (inactive) in the assay with NCI-H460; 45.8 µM (inactive) with EKVX; 34.3 µM (inactive) in the assay on U-251; 21.1 µM (inactive) in the assay with SW-620.
With `CCOC(=O)c1cc(C(O)P2(=O)N(CC(C)(C)C)[C@@H]3CCCC[C@H]3N2CC(C)(C)C)cn1C(=O)OC(C)(C)C` (some centres not stated), the GI50 in the assay on SN12C is 13.3 µM (inactive); in the assay on DU-145 it was 16.6 µM (inactive); with SK-MEL-2, 17.7 µM (inactive); in the assay with CAKI-1 it was 14.8 µM (inactive); in the assay on 786-0 it was 15.6 µM (inactive); in the assay with NCI-H226, 20.6 µM (inactive). The GI50 in the assay on NCI/ADR-RES is 16.8 µM (inactive); in the assay on M14 it was 16.2 µM (inactive); in the assay on RPMI-8226, 12.7 µM (inactive); with MDA-N it was 14.8 µM (inactive); in the assay with UACC-62 it was 13.7 µM (inactive); in the assay on SK-OV-3 it was 20 µM (inactive). The GI50 was 13.9 µM (inactive) in the assay with MDA-MB-435; 24.8 µM (inactive) with OVCAR-8; 15 µM (inactive) in the assay with SF-295; 20.5 µM (inactive) in the assay on EKVX; 15.9 µM (inactive) in the assay with U-251; 16.2 µM (inactive) in the assay on SW-620.
As for `COC1C(OC(=O)c2ccc(C)[nH]2)C(O)C(Oc2ccc3c(O)c(NC(=O)c4ccc(O)c(CC=C(C)C)c4)c(=O)oc3c2Cl)OC1(C)C` (configuration not stated), the GI50 in the assay with SN12C was 20.7 µM (inactive); in the assay with DU-145, 31 µM (inactive); in the assay on SK-MEL-2, 13.2 µM (inactive); in the assay on CAKI-1, 18.7 µM (inactive); in the assay on 786-0, 15.8 µM (inactive); with NCI-H226, 12.5 µM (inactive). Further, the GI50 in the assay with M14 is 16 µM (inactive); in the assay on RPMI-8226, 8.22 µM (inactive); with MDA-N, 23 µM (inactive); with UACC-62, 15.7 µM (inactive); in the assay with SK-OV-3 it was 20.4 µM (inactive); in the assay with MDA-MB-435, 30.2 µM (inactive). Besides, the GI50 is 17.9 µM (inactive) with OVCAR-8; 17.7 µM (inactive) with SF-295; 21.2 µM (inactive) with NCI-H460; 18.7 µM (inactive) in the assay with EKVX; 12.8 µM (inactive) in the assay with U-251; 18.5 µM (inactive) in the assay on SW-620.
Turning to `CCO[C@@H]1CCC([S+]([O-])c2ccc(C)cc2)=CO1` (some centres not stated), the GI50 in the assay on SN12C, in the assay on DU-145, in the assay on SK-MEL-2, in the assay with CAKI-1, with 786-0 and in the assay on NCI-H226 was > 100 µM (inactive) throughout. In addition, the GI50 with NCI/ADR-RES, in the assay with RPMI-8226, in the assay on MDA-N, in the assay on UACC-62, in the assay with MDA-MB-435 and in the assay on OVCAR-8 was > 100 µM (inactive) in each case. For the same compound, the GI50 with SF-295, in the assay with NCI-H460, in the assay on EKVX, in the assay on U-251 and in the assay with SW-620 was > 100 µM (inactive) throughout.
Take `C=C1C(=O)OC2/C=C(\C)C(O)CC(O)C(C)(O)CC(OC(=O)/C(C)=C/C)C12` (configuration not stated): the GI50 is 39.8 µM (inactive) in the assay with SN12C; 34.3 µM (inactive) in the assay on DU-145; 43.1 µM (inactive) in the assay on SK-MEL-2; 29 µM (inactive) in the assay on CAKI-1; 41.5 µM (inactive) in the assay with 786-0; 33.4 µM (inactive) in the assay on NCI-H226. For the same compound, the GI50 is 60.1 µM (inactive) in the assay on M14; 23 µM (inactive) with RPMI-8226; 37.3 µM (inactive) in the assay with MDA-N; 33.7 µM (inactive) with UACC-62; 53.5 µM (inactive) with SK-OV-3; 36.5 µM (inactive) in the assay on MDA-MB-435. In addition, the GI50 with OVCAR-8 was 32.5 µM (inactive); with SF-295, 55.1 µM (inactive); in the assay with NCI-H460, 32.1 µM (inactive); with HOP-92, 41.9 µM (inactive); in the assay with EKVX, 43.1 µM (inactive); in the assay on U-251, 38.1 µM (inactive). Further, in the assay with SW-620, the GI50 is 35.6 µM (inactive).
With `COC(=O)[C@@H]1[C@H](O)CCC2=C(CC(=O)c3ccoc3)[C@H](C)CC[C@]21C`, the GI50 in the assay on SN12C was > 50 µM (inactive); in the assay on SK-MEL-2 it was > 50 µM (inactive); in the assay on CAKI-1 it was > 50 µM (inactive); in the assay with 786-0 it was > 50 µM (inactive); in the assay with NCI-H226 it was 46.2 µM (inactive); in the assay on NCI/ADR-RES it was 22.2 µM (inactive). For the same compound, the GI50 in the assay with M14 was 41.2 µM (inactive); in the assay with MDA-N it was 24.5 µM (inactive); with UACC-62, 25.4 µM (inactive); with SK-OV-3, > 50 µM (inactive); with OVCAR-8 it was 35.8 µM (inactive); with SF-295, 31.4 µM (inactive). The GI50 with NCI-H460 is 23.9 µM (inactive); with HOP-92, > 50 µM (inactive); with EKVX, > 50 µM (inactive); with U-251 it was 41.2 µM (inactive); in the assay with SW-620, 36.9 µM (inactive).
With `Cc1ccc(S(=O)(=O)NC(=O)NCc2ccc(S(N)(=O)=O)cc2)cc1`, the GI50 in the assay on DU-145, in the assay on SK-MEL-2, in the assay on CAKI-1, in the assay with 786-0, in the assay on NCI-H226 and in the assay with NCI/ADR-RES was > 100 µM (inactive) each time. The GI50 in the assay on M14, in the assay on RPMI-8226, in the assay with UACC-62, in the assay on SK-OV-3, with MDA-MB-435 and in the assay on SF-295 was > 100 µM (inactive) in each case. Moreover, the GI50 in the assay on NCI-H460, in the assay with HOP-92, in the assay with EKVX, in the assay on U-251 and in the assay with SW-620 was > 100 µM (inactive) each time.
With `CSc1[nH]cnc1C(N)=S`, the GI50 in the assay on DU-145, in the assay on SK-MEL-2, in the assay on CAKI-1, in the assay with 786-0, with NCI-H226 and in the assay with NCI/ADR-RES was > 100 µM (inactive) throughout. The GI50 with M14, in the assay on RPMI-8226, in the assay on MDA-N, with UACC-62, with SK-OV-3 and in the assay on MDA-MB-435 was > 100 µM (inactive) throughout. Besides, the GI50 in the assay with OVCAR-8, with SF-295, with EKVX, in the assay on U-251 and in the assay on SW-620 was > 100 µM (inactive) throughout.
On to `COc1ccc(NC(S)=Nc2cccc(C)n2)cc1`, for which the GI50 in the assay on DU-145 is > 100 µM (inactive); with SK-MEL-2, > 100 µM (inactive); in the assay with CAKI-1, 37.9 µM (inactive); in the assay on 786-0, 54 µM (inactive); in the assay on NCI-H226, > 100 µM (inactive); in the assay on NCI/ADR-RES it was > 100 µM (inactive). For the same compound, the GI50 in the assay with M14 is > 100 µM (inactive); in the assay with RPMI-8226, > 100 µM (inactive); with UACC-62, > 100 µM (inactive); with SK-OV-3, > 100 µM (inactive); in the assay on MDA-MB-435, > 100 µM (inactive); in the assay on OVCAR-8, 96.8 µM (inactive). Also, the GI50 with SF-295 was 33.3 µM (inactive); in the assay on NCI-H460, > 100 µM (inactive); with HOP-92, 39.5 µM (inactive); in the assay on EKVX, > 100 µM (inactive); with U-251 it was 33.5 µM (inactive); in the assay on SW-620, > 100 µM (inactive).
As to `COc1c(O)cc2c(c1O)C(=O)C1=C(CCCC1)C2=O`, the GI50 is 20.6 µM (inactive) in the assay with SN12C; 22.3 µM (inactive) in the assay on DU-145; 37.6 µM (inactive) in the assay with SK-MEL-2; 27.5 µM (inactive) with CAKI-1; 17.3 µM (inactive) with 786-0; 30.5 µM (inactive) in the assay with NCI-H226. For the same compound, the GI50 was 17.3 µM (inactive) in the assay on NCI/ADR-RES; 34.8 µM (inactive) in the assay with M14; 9.53 µM (inactive) in the assay on RPMI-8226; 20.3 µM (inactive) with UACC-62; 19.8 µM (inactive) in the assay on SK-OV-3; 26.9 µM (inactive) in the assay on MDA-MB-435. For the same compound, the GI50 in the assay on OVCAR-8 is 20.4 µM (inactive); in the assay on SF-295, 25.2 µM (inactive); with NCI-H460, 27.1 µM (inactive); with HOP-92 it was 21.7 µM (inactive); in the assay with EKVX it was 22.6 µM (inactive); in the assay with U-251, 21 µM (inactive). Besides, the GI50 in the assay on SW-620 was 27.4 µM (inactive).
`Nc1cc(Cl)ccc1SSc1ccc(Cl)cc1N`: the GI50 with SN12C was 11.9 µM (inactive); in the assay with DU-145, 15.2 µM (inactive); with SK-MEL-2, 17 µM (inactive); in the assay with CAKI-1 it was 19.6 µM (inactive); in the assay on 786-0, 13.2 µM (inactive); in the assay on NCI-H226, 2.94 µM (inactive). For the same compound, the GI50 with NCI/ADR-RES was 7.94 µM (inactive); in the assay with M14, 8.65 µM (inactive); with RPMI-8226 it was 3.72 µM (inactive); in the assay on UACC-62 it was 2.88 µM (inactive); with SK-OV-3, 15.7 µM (inactive); with MDA-MB-435, 12.9 µM (inactive). The GI50 was 16.6 µM (inactive) in the assay on OVCAR-8; 11 µM (inactive) with SF-295; 12.5 µM (inactive) with NCI-H460; 41.7 µM (inactive) in the assay with HOP-92; 9.55 µM (inactive) in the assay on EKVX; 4.15 µM (inactive) with U-251. The GI50 in the assay with SW-620 is 3.94 µM (inactive).
